Experimental data reported in BindingDB's records for patent US20250032625 (Merck Patent, 2025).

Target: T1, Transcriptional enhancer factor TEF-1 [209-426] (UniProt P28347)
T1 construct: 209-426
Assay: Surface Plasmon Resonance (SPR) Assay
Experimental: The kinetic and affinity parameters of protein-exemplary compound interactions were evaluated by SPR. hsTEAD1 (209-426) was immobilized onto a CM7 (Series S) sensor chip via the standard amine coupling procedure, at 15° C. Prior to immobilization, the carboxymethylated surface of the chip was activated with 400 mM 1-ethyl-3-(3-dimethylaminopropyl)-carbodiimide and 100 mM N-hydroxysuccinimide for 10 min. hsTEAD1 (209-426) was diluted to 11 μg/mL in 10 mM Bis-Tris at pH 6.5 and immobilized on the activated surface chip for 8 and 10 min, in order to reach 6000 to 9000 response units (RU). The remaining activated carboxymethylated groups were blocked with a 7 min injection of 1 M ethanolamine pH 8.5 after which the surface chip was washed with 0.5% (w/v) sodium dodecyl sulphate and 50 mM glycine. HBS-N, which consists of 10 mM HEPES pH 7.4 and 150 mM NaCl, was used as the background buffer during immobilization. Exemplary compounds were prediluted in DMSO, diluted 1:50 in running buffer (20 mM Tris pH 7.4, 150 mM NaCl, 1 mM DTT, 5 mM MgCl2, 0.1 mM EGTA, 0.05% CHAPS) and injected at ten different concentrations using two-fold dilution series, from 100 μM to 0.2 μM. A DMSO solvent correction (1%-3%) was performed to account for variations in bulk signal and to achieve high-quality data. […]

T1 sequence (P28347 209-426): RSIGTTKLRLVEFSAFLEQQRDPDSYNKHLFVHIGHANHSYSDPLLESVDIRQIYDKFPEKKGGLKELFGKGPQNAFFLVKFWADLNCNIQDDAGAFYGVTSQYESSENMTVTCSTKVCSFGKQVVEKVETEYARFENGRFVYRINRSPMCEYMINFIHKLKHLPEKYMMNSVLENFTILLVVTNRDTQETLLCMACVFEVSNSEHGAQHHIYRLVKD

Kd: 3.01 µM
Structure (SMILES): Cn1cc2c3cc(C(=O)NCCOCCOCCOCCOCCOc4cccc5c4C(=O)N(C4CCC(=O)NC4=O)C5=O)ccc3n(-c3ccc(C(F)(F)F)cc3)c2n1 (stereo unspecified) [US20250032625, Compound 16]
